These results are taken from US12319655B2, “RAF kinase inhibitors and methods of use thereof” (Deciphera Pharmaceuticals, LLC, priority 2021, dated 2025).

Assay [1] concerns the target B-Raf (V600E) (SEQ. ID NO: 4) kinase (Homo sapiens (Human), UniProt P15056, V600E). In words: Biochemical Assay for B-Raf (V600E) (2). Particulars: Table J, BRAF V600E, biochemical assay (2); read-out: BRAF VE (2). The essentials: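 Coupled pyruvate kinase/lactate dehydrogenase assay tracking NADH oxidation (A340) with 0.5 nM B-Raf V600E, 100 nM MEK substrate, 1 mM ATP, pH 7.5 Tris/MgCl2 buffer, 1% DMSO. Read hourly 4 h at 30 °C; rate over 3–4 h gives percent inhibition, IC50 from four-parameter fit.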

Assay [2] relates to Miapaca-2 cells. In words: MiaPaca-2 Combination Cell Proliferation Assay (2) with cobimetinib. The assay is classed as cell-based. The conditions noted are these: MiaPaca-2 cell proliferation, read-out: MiaPaca-2 Combo (2) IC50. As to the method: MiaPaca-2 Combination Cell Proliferation Assay (2)
Miapaca-2 cells (catalog #CRL-1420) are obtained from the American Type Culture Collect (ATCC, Manassas, VA). Briefly, cells were grown in DMEM supplemented with 10% characterized fetal bovine serum (Invitrogen, Carlsbad, CA), 2.5% New Zealand sourced horse serum and 1% Penicillin/Streptomycin/L-Glutamine at 37° C., 5% CO2, and 95% humidity. Cells are expanded until reaching 70-95% confluency at which point they are subcultured or harvested for assay use. Using the Beckman Coulter Echo 650, a threefold, 8-point serial dilution of compound was spotted column wise into a 384 well black, clear bottom, tissue culture treated plate. Likewise, a threefold, 8-point serial dilution of cobimetinib was spotted row wise into the 384 well black, clear bottom plate containing compound. DMSO concentration was constant across all wells at 0.4%. Seven hundred fifty cells are added per well in 50 μL complete growth medium in each 384-well plate. Plates are incubated for 67-72 hours at 37° C., 5% CO2, and 95% humidity. At the end of the incubation, 10 μL of a 440 μM solution of resazurin (Sigma, St. Louis, MO) in PBS is added to each well of the plate and plates are incubated for an additional 4-6 hours at 37° C., 5% CO2, and 95% humidity. Plates are read on a Synergy2 or equivalent reader (Biotek, Winooski VT) using an excitation of 540 nm and an emission of 600 nm. Drug synergy was assessed via BLISS analysis in the Combenefit software (Cancer Research UK Cambridge Institute, Cambridge, UK). Data is analyzed using Prism software (Graphpad, San Diego, CA) to calculate IC50 values. Shifts in test compound IC50 values are reported from top-constrained combination therapy curves.

Chain of B-Raf (V600E) (SEQ. ID NO: 4) kinase (P15056 416-766 V600E): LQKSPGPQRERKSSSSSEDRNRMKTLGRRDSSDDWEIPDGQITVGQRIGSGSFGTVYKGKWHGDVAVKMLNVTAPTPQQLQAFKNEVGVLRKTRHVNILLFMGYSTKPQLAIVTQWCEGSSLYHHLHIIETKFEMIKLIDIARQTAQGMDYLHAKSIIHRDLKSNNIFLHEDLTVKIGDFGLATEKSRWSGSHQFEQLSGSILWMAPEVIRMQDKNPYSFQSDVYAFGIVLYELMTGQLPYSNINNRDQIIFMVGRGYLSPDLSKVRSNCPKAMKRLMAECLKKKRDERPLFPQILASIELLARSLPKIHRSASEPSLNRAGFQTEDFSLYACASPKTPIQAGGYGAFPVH

`CNC(=O)c1cc(-c2cc(-c3cc(NC(=O)c4cnnc(C(C)(C)F)c4)ccc3C)ccn2)ccn1` [Example 495]: the IC50 in assay [1] was ≤ 100 nM. In the case of `Cc1ccc(NC(=O)c2ccnc(C(C)(C)F)c2)cc1-c1cnnc(-c2ccnc(C(N)=O)c2)c1` [Example 486], the values for the IC50 in assay [1] and in assay [2] were ≤ 100 nM and 1000 to 10000 nM, respectively.

For `CNC(=O)c1cc(-c2cc(-c3cc(NC(=O)c4ccnc(C(C)(C)F)n4)ccc3C)ccn2)ccn1` [Example 494], in assay [1], the IC50 is ≤ 100 nM.

As to `CNC(=O)c1cc(-c2cc(-c3cc(NC(=O)c4ccnc(C(C)(C)F)c4)c(F)cc3C)ccn2)ccn1` [Example 497], in assay [1], the IC50 was ≤ 100 nM. As for `Cc1ccc(NC(=O)c2cccc(C(F)(F)F)c2)cc1-c1ccnc(-c2ccnc(NC(=O)C3CC3)c2)c1` [Example 502], the IC50 in assay [1] is ≤ 100 nM. In the case of `CNC(=O)c1cc(-c2cc(-c3cc(NC(=O)c4ccnc(C5(F)CC5)c4)ccc3C)ccn2)ccn1` [Example 487], the results for the IC50 in assay [1] and in assay [2] were ≤ 100 nM and 100 to 500 nM, respectively.

In the case of `Cc1ccc(NC(=O)c2cn(C)nc2C(F)(F)F)cc1-c1cncc(-c2ccnc(NC(=O)C3CC3)c2)c1` [Example 500], the IC50 in assay [1] is ≤ 100 nM. Turning to `[2H]C([2H])([2H])NC(=O)c1cc(-c2cc(-c3cc(NC(=O)c4ccnc(C(C)(C)F)c4)ccc3C)cc(C)n2)ccn1` [Example 493], the IC50 in assay [1] was ≤ 100 nM; in assay [2], 100 to 500 nM. Take `CC(C)(F)c1cc(C(=O)Nc2ccc(F)c(-c3ccnc(-c4ccnc(C(N)=O)c4)c3)c2)ccn1` [Example 491]: the IC50 in assay [1] is ≤ 100 nM. Still for that read-out and setting: the result for `[2H]C([2H])([2H])NC(=O)c1cc(-c2cc(-c3cc(NC(=O)c4ccnc(C5(F)CC5)c4)ccc3C)cc(C)n2)ccn1` [Example 498] reads ≤ 100 nM. For `CNC(=O)c1cc(-c2cc(-c3cc(NC(=O)c4ccnc(C5(F)CC5)c4)ccc3C)cc(C)n2)ccn1` [Example 496], in assay [1], the IC50 is ≤ 100 nM. Still for that read-out and setting: the result for `Cc1ccc(NC(=O)c2ccc(C(F)(F)F)cc2)cc1-c1ccnc(-c2ccnc(NC(=O)C3CC3)c2)c1` [Example 501] reads 100 to 500 nM. Still for that read-out and setting: with `Cc1ccc(NC(=O)c2ccnc(C(C)(C)F)c2)cc1-c1cc(-c2ccnc(C(N)=O)c2)ncc1F` [Example 490] the figure was ≤ 100 nM. The same measure, in the same setting: the result for `Cc1ccc(NC(=O)c2cc(C(F)(F)F)ccc2F)cc1-c1ccnc(-c2ccnc(NC(=O)C3CC3)c2)c1` [Example 503] reads ≤ 100 nM. Consider `[2H]C([2H])([2H])NC(=O)c1cc(-c2cc(-c3cc(NC(=O)c4ccnc(C(C)(C)F)c4)ccc3C)ccn2)ccn1` [Example 489], for which the IC50 in assay [1] is ≤ 100 nM; in assay [2], 100 to 500 nM. As for `Cc1ccc(NC(=O)c2ccnc(C(C)(C)F)c2)cc1-c1cc(-c2ccnc(C(N)=O)c2)ncn1` [Example 488], the IC50 in assay [1] is ≤ 100 nM. Still for that read-out and setting: with `CNC(=O)c1cc(-c2cc(-c3cc(NC(=O)c4ccnc(C(C)(C)F)c4)ccc3Cl)ccn2)ccn1` [Example 485] the figure was ≤ 100 nM. Same read-out and setting: with `CNC(=O)c1cc(-c2cc(-c3cc(NC(=O)c4ccnc(C(C)(C)F)c4)ncc3C)ccn2)ccn1` [Example 499] the figure was ≤ 100 nM; with `CNC(=O)c1cc(-c2cc(-c3cc(NC(=O)c4cnnc(C(C)(F)F)c4)ccc3C)ccn2)ccn1` [Example 492], ≤ 100 nM.
